# Reference: patent US20050228016A1, “TETRAHYDROQUINOLINES FOR MODULATING THE EXPRESSION OF EXOGENOUS GENES VIA AN ECDYSONE RECEPTOR COMPLEX” (priority 2002, published 2005)
# Test system: GAL4 DBD-CfEcR(DEF)/VP16AD-MmRXRE
# Assay: not given
# Conditions: CHO 13B3 clone, 48 h, average of two wells
# Excerpt: GAL4 DBD-CfEcR(DEF)/VP16AD-MmRXRE: The wild-type D, E, and F domains from spruce budworm Choristoneura fumiferana EcR (“CfEcR-DEF”; SEQ ID NO: 1) were fused to a GAL4 DNA binding domain (“Gal4DBD1-147”; nucleotides 31 to 471 of SEQ ID NO: 2) and placed under the control of the SV40e promoter of pM vector (PT3119-5, Clontech, Palo Alto, Calif.). The D and E domains from Mus Musculus RXR (“MmRXR-DE”; SEQ ID NO: 22) were fused to the transactivation domain from VP16 (“VP16AD”; SEQ ID NO: 5) and placed under the control of the SV40e promoter of the pVP16 vector (PT3127-5, Clontech, Palo Alto, Calif.).
# CHO cells were transiently transfected with transcription cassettes for GAL4 DBD-CfEcR(DEF) and for VP16AD-MmRXRE controlled by SV40e promoters. Stably transfected cells were selected using Hygromycin. Individually isolated CHO cell clones were transiently transfected with a GAL4 RE-luciferase reporter (pFR-Luc, Stratagene, La Jolla, Calif.). The 13B3 clone was selected using Zeocin.
# Cells were trypsinized and diluted to a concentration of 2.5×10^4 cells mL. 100 μL of cell suspension was placed in each well of a 96 well plate and incubated at 37° C. under 5% CO2 for 24 h. Ligand stock solutions were prepared in DMSO and diluted 300 fold for all treatments.
# Luciferase reporter gene expression was measured 48 h after cell treatment using Bright-Glo™ Luciferase Assay System from Promega (E2650). Luminescence was detected at room temperature using a Dynex MLX microtiter plate luminometer.
# Each assay was conducted in two separate wells, and the two values were averaged. Fold inductions were calculated by dividing relative light units (“RLU”) in ligand treated cells with RLU in DMSO treated cells.
row,SMILES,"Fold Induction Average, 13B3V1 Assay 33 μM [fold]"
1,Cc1ccc(C(=O)N2c3ccccc3C(Nc3ccccc3)CC2C)cc1 (mixture of isomers) [Compound I-39],1
2,Cc1ccc(C(=O)N2c3ccccc3C(Nc3ccccc3Cl)CC2C)cc1 (mixture of isomers) [Compound I-41],1
3,C[C@H]1C[C@H](Nc2ccccc2)c2ccccc2N1C(=O)c1ccc(F)c(F)c1 (relative stereo) [Compound I-15],1
4,Cc1ccc(C(=O)N2c3ccccc3[C@@H](Nc3ccccc3)C[C@@H]2C)cc1F (relative stereo) [Compound I-16],1
5,C[C@H]1C[C@H](Nc2ccccc2)c2ccccc2N1C(=O)c1ccc(C(F)(F)F)c(F)c1 (relative stereo) [Compound I-17],1
6,Cc1ccc(N[C@H]2C[C@H](C)N(C(=O)c3ccc(C)c(F)c3)c3ccc(C)cc32)cc1 (relative stereo) [Compound I-22],1
7,C[C@H]1C[C@H](Nc2ccc(F)cc2)c2cc(F)ccc2N1C(=O)c1ccc(F)c(F)c1 (relative stereo) [Compound I-26],95
8,C[C@H]1C[C@H](Nc2ccc(F)cc2)c2cc(F)ccc2N1C(=O)c1ccc(C(F)(F)F)c(F)c1 (relative stereo) [Compound I-27],6
9,Cc1ccc(N[C@@H]2C[C@H](C)N(C(=O)c3ccc(C)c(F)c3)c3ccc(C)cc32)cc1 (relative stereo) [Compound I-28],1
10,C[C@H]1C[C@@H](Nc2ccccc2)c2ccccc2N1C(=O)c1ccc2c(c1)OCO2 (relative stereo) [Compound I-31],1
11,COc1ccc(C=CC(=O)N2c3ccccc3[C@@H](Nc3ccccc3)C[C@@H]2C)cc1OC (relative stereo) [Compound I-146],1
12,COc1ccc(C(=O)N2c3ccc(C)cc3[C@H](Nc3ccc(C)cc3)C[C@@H]2C)cc1 (stereo in doubt) [Compound I-152],2
13,Cc1ccc(NC2CC(C)N(C(=O)c3ccc4c(c3)OCO4)c3ccc(C)cc32)cc1 (centres unmarked) [Compound I-34],1
14,COc1cccc(C(=O)N2c3ccccc3C(Nc3ccccc3)CC2C)c1C (centres unmarked) [Compound I-50],1
15,COc1cccc(C(=O)N2c3ccc(F)cc3C(Nc3ccc(F)cc3)CC2C)c1C (centres unmarked) [Compound I-58],30
16,CC(=O)N(c1ccccc1)C1CC(C)N(C(=O)C=Cc2ccccc2)c2ccccc21 (centres unmarked) [Compound I-119],3
17,COc1ccc(C(=O)N(c2ccccc2)C2CC(C)N(C(=O)c3ccc(Cl)cc3)c3ccccc32)cc1 (centres unmarked) [Compound I-120],1
18,Cc1ccc(NC2CC(C)N(C(=O)c3ccc(F)cc3)c3ccc(C)cc32)cc1 (centres unmarked) [Compound I-124],3
19,COc1ccc(C(=O)N2c3ccccc3C(N(C(=O)c3cccs3)c3ccccc3)CC2C)cc1 (centres unmarked) [Compound I-131],1
20,CCCCCc1ccc(C(=O)N2c3ccccc3C(Nc3ccccc3)CC2C)cc1 (centres unmarked) [Compound I-138],1
21,COc1cccc(N(C(C)=O)C2CC(C)N(C(=O)c3ccccc3)c3ccccc32)c1 (centres unmarked) [Compound I-140],2
22,Cc1ccc(NC2CC(C)N(C(=O)c3ccc(Cl)cc3)c3ccc(C)cc32)cc1 (centres unmarked) [Compound I-144],4
23,CC1CC(Nc2ccccc2)c2ccccc2N1C(=O)c1cccc(Br)c1 (centres unmarked) [Compound I-148],1
24,CC(=O)N(c1ccc(C)cc1)C1CC(C)N(C(=O)c2ccccc2)c2ccccc21 (centres unmarked) [Compound I-149],3
25,Cc1ccc(C(=O)N(c2ccccc2)C2CC(C)N(C(=O)c3ccc(Cl)cc3)c3ccccc32)cc1 (centres unmarked) [Compound I-161],1
26,CC(=O)N1c2ccccc2C(N(C(=O)c2ccccc2F)c2ccccc2)CC1C (centres unmarked) [Compound I-185],1
27,Cc1ccc(N(C(=O)c2ccc3c(c2)OCO3)C2CC(C)N(C(=O)c3ccc4c(c3)OCO4)c3ccc(C)cc32)cc1 (centres unmarked) [Compound I-194],1

# Target: T1, Gal4DBD/AaEcR (DEF) (Aedes aegypti, UniProt P49880)
# T1 construct: The wildtype D, E, and F domains from mosquito Aedes aegypti EcR; expressed in transfected cells; host or cells: 3T3 cells
# Assay: cell-based
# Type: cell-based
# Conditions: 33 μM; 3T3 cells; 48 h; average of two wells
# How it was run: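 Mouse 3T3 cells transiently co-transfected with Gal4DBD/AaEcR (DEF) and pFRLuc (5× GAL4 response element, firefly luciferase reporter). Ligand added in serum medium 4 h after transfection; single-dose testing at 33 μM.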
# T1 sequence (P28704 286-520 A311G/G315S/G445S/I449V): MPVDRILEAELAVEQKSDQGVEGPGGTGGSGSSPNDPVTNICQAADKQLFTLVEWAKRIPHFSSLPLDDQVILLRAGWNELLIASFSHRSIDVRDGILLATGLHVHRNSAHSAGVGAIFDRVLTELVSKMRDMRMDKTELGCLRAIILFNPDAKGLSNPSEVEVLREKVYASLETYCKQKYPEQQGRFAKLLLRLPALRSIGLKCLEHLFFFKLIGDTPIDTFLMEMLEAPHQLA
# T1 sequence (P49880 405-776): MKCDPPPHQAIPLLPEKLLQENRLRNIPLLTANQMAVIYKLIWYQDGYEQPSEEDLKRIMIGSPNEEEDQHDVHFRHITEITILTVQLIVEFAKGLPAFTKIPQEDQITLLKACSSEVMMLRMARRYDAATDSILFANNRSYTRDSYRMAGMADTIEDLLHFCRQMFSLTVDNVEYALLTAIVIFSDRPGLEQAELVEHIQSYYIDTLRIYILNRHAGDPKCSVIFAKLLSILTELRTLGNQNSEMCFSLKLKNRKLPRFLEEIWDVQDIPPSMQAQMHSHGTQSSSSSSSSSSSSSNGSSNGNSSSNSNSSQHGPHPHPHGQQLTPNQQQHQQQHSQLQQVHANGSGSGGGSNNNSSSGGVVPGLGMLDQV
row,SMILES,"Fold Induction Average, AA_3T3V1 Assay 33 μM [fold]"
1,Cc1ccc(C(=O)N2c3ccccc3C(Nc3ccccc3)CC2C)cc1 (mixture of isomers) [Compound I-39],182
2,Cc1ccc(C(=O)N2c3ccccc3C(Nc3ccccc3Cl)CC2C)cc1 (mixture of isomers) [Compound I-41],2
3,C[C@H]1C[C@H](Nc2ccccc2)c2ccccc2N1C(=O)c1ccc(F)c(F)c1 (relative stereo) [Compound I-15],132
4,Cc1ccc(C(=O)N2c3ccccc3[C@@H](Nc3ccccc3)C[C@@H]2C)cc1F (relative stereo) [Compound I-16],376
5,C[C@H]1C[C@H](Nc2ccccc2)c2ccccc2N1C(=O)c1ccc(C(F)(F)F)c(F)c1 (relative stereo) [Compound I-17],135
6,Cc1ccc(N[C@H]2C[C@H](C)N(C(=O)c3ccc(C)c(F)c3)c3ccc(C)cc32)cc1 (relative stereo) [Compound I-22],132
7,C[C@H]1C[C@H](Nc2ccc(F)cc2)c2cc(F)ccc2N1C(=O)c1ccc(F)c(F)c1 (relative stereo) [Compound I-26],124
8,C[C@H]1C[C@H](Nc2ccc(F)cc2)c2cc(F)ccc2N1C(=O)c1ccc(C(F)(F)F)c(F)c1 (relative stereo) [Compound I-27],112
9,Cc1ccc(N[C@@H]2C[C@H](C)N(C(=O)c3ccc(C)c(F)c3)c3ccc(C)cc32)cc1 (relative stereo) [Compound I-28],1
10,C[C@H]1C[C@@H](Nc2ccccc2)c2ccccc2N1C(=O)c1ccc2c(c1)OCO2 (relative stereo) [Compound I-31],48
11,COc1ccc(C=CC(=O)N2c3ccccc3[C@@H](Nc3ccccc3)C[C@@H]2C)cc1OC (relative stereo) [Compound I-146],4
12,COc1ccc(C(=O)N2c3ccc(C)cc3[C@H](Nc3ccc(C)cc3)C[C@@H]2C)cc1 (stereo in doubt) [Compound I-152],1
13,Cc1ccc(NC2CC(C)N(C(=O)c3ccc4c(c3)OCO4)c3ccc(C)cc32)cc1 (centres unmarked) [Compound I-34],1
14,COc1cccc(C(=O)N2c3ccccc3C(Nc3ccccc3)CC2C)c1C (centres unmarked) [Compound I-50],21
15,COc1cccc(C(=O)N2c3ccc(F)cc3C(Nc3ccc(F)cc3)CC2C)c1C (centres unmarked) [Compound I-58],124
16,CC(=O)N(c1ccccc1)C1CC(C)N(C(=O)C=Cc2ccccc2)c2ccccc21 (centres unmarked) [Compound I-119],1
17,COc1ccc(C(=O)N(c2ccccc2)C2CC(C)N(C(=O)c3ccc(Cl)cc3)c3ccccc32)cc1 (centres unmarked) [Compound I-120],249
18,Cc1ccc(NC2CC(C)N(C(=O)c3ccc(F)cc3)c3ccc(C)cc32)cc1 (centres unmarked) [Compound I-124],1
19,COc1ccc(C(=O)N2c3ccccc3C(N(C(=O)c3cccs3)c3ccccc3)CC2C)cc1 (centres unmarked) [Compound I-131],162
20,CCCCCc1ccc(C(=O)N2c3ccccc3C(Nc3ccccc3)CC2C)cc1 (centres unmarked) [Compound I-138],5
21,COc1cccc(N(C(C)=O)C2CC(C)N(C(=O)c3ccccc3)c3ccccc32)c1 (centres unmarked) [Compound I-140],1
22,Cc1ccc(NC2CC(C)N(C(=O)c3ccc(Cl)cc3)c3ccc(C)cc32)cc1 (centres unmarked) [Compound I-144],73
23,CC1CC(Nc2ccccc2)c2ccccc2N1C(=O)c1cccc(Br)c1 (centres unmarked) [Compound I-148],47
24,CC(=O)N(c1ccc(C)cc1)C1CC(C)N(C(=O)c2ccccc2)c2ccccc21 (centres unmarked) [Compound I-149],1
25,Cc1ccc(C(=O)N(c2ccccc2)C2CC(C)N(C(=O)c3ccc(Cl)cc3)c3ccccc32)cc1 (centres unmarked) [Compound I-161],28

# Target: T2, Bombyx mori EcR (VP16-BmEcR, CVBE) (Bombyx mori, UniProt P49881)
# T2 construct: expressed in transfected cells
# T2 sequence (P49881 86-606): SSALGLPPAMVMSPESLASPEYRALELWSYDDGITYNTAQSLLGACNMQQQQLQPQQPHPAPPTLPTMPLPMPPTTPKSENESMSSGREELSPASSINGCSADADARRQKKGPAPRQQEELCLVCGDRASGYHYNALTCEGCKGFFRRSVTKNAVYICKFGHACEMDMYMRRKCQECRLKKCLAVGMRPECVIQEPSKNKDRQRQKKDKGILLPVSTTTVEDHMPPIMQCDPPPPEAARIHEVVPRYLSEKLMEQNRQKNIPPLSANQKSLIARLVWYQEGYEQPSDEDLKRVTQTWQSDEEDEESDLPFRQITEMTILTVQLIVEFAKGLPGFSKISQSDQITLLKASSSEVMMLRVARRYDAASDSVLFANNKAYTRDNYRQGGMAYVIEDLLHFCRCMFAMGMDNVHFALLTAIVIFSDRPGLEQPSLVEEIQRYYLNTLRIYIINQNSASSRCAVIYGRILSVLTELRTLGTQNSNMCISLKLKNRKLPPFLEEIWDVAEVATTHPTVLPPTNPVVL
# Assay: Z3 assay (HEK-293 clone Z3 with CVBE and 6x EcRE LacZ, β-galactosidase reporter)
# Type: cell-based
# Conditions: 48 h, average of two wells
row,SMILES,"Fold Induction Average, Z3V1 Assay 33 μM [fold]"
1,Cc1ccc(C(=O)N2c3ccccc3C(Nc3ccccc3)CC2C)cc1 (mixture of isomers) [Compound I-39],4
2,Cc1ccc(C(=O)N2c3ccccc3C(Nc3ccccc3Cl)CC2C)cc1 (mixture of isomers) [Compound I-41],1
3,C[C@H]1C[C@H](Nc2ccccc2)c2ccccc2N1C(=O)c1ccc(F)c(F)c1 (relative stereo) [Compound I-15],20
4,Cc1ccc(C(=O)N2c3ccccc3[C@@H](Nc3ccccc3)C[C@@H]2C)cc1F (relative stereo) [Compound I-16],27
5,C[C@H]1C[C@H](Nc2ccccc2)c2ccccc2N1C(=O)c1ccc(C(F)(F)F)c(F)c1 (relative stereo) [Compound I-17],9
6,Cc1ccc(N[C@H]2C[C@H](C)N(C(=O)c3ccc(C)c(F)c3)c3ccc(C)cc32)cc1 (relative stereo) [Compound I-22],3
7,C[C@H]1C[C@H](Nc2ccc(F)cc2)c2cc(F)ccc2N1C(=O)c1ccc(F)c(F)c1 (relative stereo) [Compound I-26],152
8,C[C@H]1C[C@H](Nc2ccc(F)cc2)c2cc(F)ccc2N1C(=O)c1ccc(C(F)(F)F)c(F)c1 (relative stereo) [Compound I-27],119
9,Cc1ccc(N[C@@H]2C[C@H](C)N(C(=O)c3ccc(C)c(F)c3)c3ccc(C)cc32)cc1 (relative stereo) [Compound I-28],1
10,C[C@H]1C[C@@H](Nc2ccccc2)c2ccccc2N1C(=O)c1ccc2c(c1)OCO2 (relative stereo) [Compound I-31],1
11,COc1ccc(C=CC(=O)N2c3ccccc3[C@@H](Nc3ccccc3)C[C@@H]2C)cc1OC (relative stereo) [Compound I-146],1
12,COc1ccc(C(=O)N2c3ccc(C)cc3[C@H](Nc3ccc(C)cc3)C[C@@H]2C)cc1 (stereo in doubt) [Compound I-152],1
13,Cc1ccc(NC2CC(C)N(C(=O)c3ccc4c(c3)OCO4)c3ccc(C)cc32)cc1 (centres unmarked) [Compound I-34],1
14,COc1cccc(C(=O)N2c3ccccc3C(Nc3ccccc3)CC2C)c1C (centres unmarked) [Compound I-50],115
15,COc1cccc(C(=O)N2c3ccc(F)cc3C(Nc3ccc(F)cc3)CC2C)c1C (centres unmarked) [Compound I-58],147
16,CC(=O)N(c1ccccc1)C1CC(C)N(C(=O)C=Cc2ccccc2)c2ccccc21 (centres unmarked) [Compound I-119],1
17,COc1ccc(C(=O)N2c3ccccc3C(N(C(=O)c3cccs3)c3ccccc3)CC2C)cc1 (centres unmarked) [Compound I-131],4
18,CCCCCc1ccc(C(=O)N2c3ccccc3C(Nc3ccccc3)CC2C)cc1 (centres unmarked) [Compound I-138],1
19,COc1cccc(N(C(C)=O)C2CC(C)N(C(=O)c3ccccc3)c3ccccc32)c1 (centres unmarked) [Compound I-140],1
20,Cc1ccc(NC2CC(C)N(C(=O)c3ccc(Cl)cc3)c3ccc(C)cc32)cc1 (centres unmarked) [Compound I-144],1
21,CC1CC(Nc2ccccc2)c2ccccc2N1C(=O)c1cccc(Br)c1 (centres unmarked) [Compound I-148],19
22,CC(=O)N1c2ccccc2C(N(C(=O)c2ccccc2F)c2ccccc2)CC1C (centres unmarked) [Compound I-185],1
